“Also recorded” adds a separate entry of the source.
Tests used:
[1] = test system: CD68+ mononuclear phagocytes in the spiral ganglion; test: Macrophage activation (CD68+ cells) in the spiral ganglion, animal model of antibiotic-induced hearing loss; assay type: in vivo, mouse; conditions: seven consecutive days
Method: To determine the effect of 6′-sialyllactose on macrophage activation in the inner ear, one-week old C57BL/6 pubs of mice were treated subcutaneously with either 50 μl PBS, 50 μl of 200 mg/kgbw neomycin (Neo, Sigma, N5285) in PBS, or 50 μl of 200 mg/kgbw neomycin (Sigma, N5285) plus 100 mg/kgbw 6′-sialyllactose (Carbosynth, OS04398) in PBS or only PBS as vehicle control for seven consecutive days. Mice were sacrificed two weeks after the last injection.
For further investigations, cochleae of the mice were isolated, post-fixed in 4% paraformaldehyde (PFA), decalcified in 5% EDTA, incubated in 30% sucrose until fully soaked, embedded in a cryoprotectant and cut into 20 μm thin slices from the apex to the base of the cochlea with a cryostat. For quantification of the macrophage activation in the cochlea, cryosections from different levels of the cochlea were chosen and co-stained with antibodies against the macrophage activation marker CD68 and the cellular nuclei marker DAPI. […] The area of the spiral ganglion was selected and measured using ImageJ. The CD68-positive cells were counted within the chosen area and the cell density of the macrophage in the spiral ganglion was calculated and normalized to the PBS vehicle treated condition. Data were analyzed by one-way ANOVA with Bonferroni post-hoc correction.

[2] = test system: sensory neurons in the spiral ganglion; test: Sensory neuron density (NeuN+ cells) in the spiral ganglion, animal model of antibiotic-induced hearing loss; assay type: in vivo, mouse; conditions: seven consecutive days
Method: One-week old C57BL/6 pubs of mice were treated subcutaneously with either 50 μl PBS, 50 μl of 200 mg/kgbw neomycin (Sigma, N5285) in PBS, or 50 μl of 200 mg/kgbw neomycin (Sigma, N5285) plus 100 mg/kgbw 6′-sialyllactose (Carbosynth, OS04398) in PBS for seven consecutive days. Mice were sacrificed 2 weeks after the last injection. For further investigations cochlea of the mice were isolated, post-fixed in 4% PFA, decalcified in 5% EDTA, incubated in 30% sucrose until fully soaked, embedded in a cryoprotectant and cut into 20 μm thin slices from the apex to base of the cochlea with a cryostat. For quantification of the sensory neurons in the cochlea, cryosections from different levels of the cochlea were chosen and stained with antibodies for neuronal nuclei (NeuN) and the cellular nuclei marker DAPI. Z-stacks of 3×2 μm images were taken with a confocal microscope and stacks were afterwards combined to maximal projection images. The area of the spiral ganglion was selected and measured using ImageJ.
The NeuN-positive cells of the mice treated with neomycin (Neo), neomycin plus 6′-sialyllactose (Neo+6SL) or vehicle control (PBS) within the chosen area were counted and the neuronal density of the spiral ganglion was calculated and normalized to the PBS treated condition. […] Data were analyzed by one-way ANOVA with Bonferroni post-hoc correction (*p<0.05).

[3] = test system: hair cells of the middle turn of the cochlea; test: Hair cell count (Myo7A+ cells) in the cochlea, animal model of antibiotic-induced hearing loss; assay type: in vivo, mouse; conditions: seven consecutive days
Method: One-week old BL6 pubs of mice were treated subcutaneously with either 50 μl PBS, 50 μl of 200 mg/kgbw neomycin (Sigma, N5285) in PBS, or 50 μl of 200 mg/kgbw neomycin (Sigma, N5285) plus 100 mg/kgbw 6′-sialyllactose (Carbosynth, OS04398) in PBS for seven consecutive days. Mice were sacrificed two weeks after the last injection. For further investigations cochlea of the mice were isolated, post-fixed in 4% PFA, decalcified in 5% EDTA, incubated in 30% sucrose until fully soaked, embedded in a cryoprotectant and cut into 20 μm thin slices from the apex to base of the cochlea with a cryostat. For quantification of the hair cell density in the cochlea, cryosections from different levels of the cochlea were chosen and co-stained with antibodies against the hair cell marker Myosin7A (Myo7A) and the cellular nuclei marker DAPI. Images were taken with a confocal microscope and divided into different sections from apex to base of the cochlea. Myosin7a-positive cells were counted in each section.

human THP-1 macrophages = test: Beads phagocytosis in LPS-activated THP-1 macrophages (flow cytometry); assay type: cell-based; conditions: THP-1 macrophages activated by 3 μg/ml LPS, 24 hours; 0.5 μM test substance; vs LPS alone
Method: The effect of 6′- and 3′-sialyllactose on beads phagocytosis was determined in the human mononuclear phagocyte cell line THP-1. The human mononuclear phagocyte cell line THP-1 was maintained in RPMI medium supplemented with 1% L-glutamine, 1% Penicillin/Streptomycin and 1% heat-inactivated chicken serum, at 5% CO2 and 37° C. For passaging, the cells were transferred to a 50 mL Falcon tube and centrifuged at 1300 rpm for 3 min. The supernatant was removed and the pellet was re-suspended in 5 mL of warm medium. For differentiation into macrophage-like cells, the cell density was adjusted to approximately 1×10^6 cells/mL. The cell suspension was mixed with 10 ng/mL PMA (Phorbol 12-myristate 13-acetate, Sigma) and distributed in volumes according to each experiment. Cells were incubated for 48 h, washed twice with medium and then cultured in medium for additional 48 h without PMA. For experimentation THP-1 macrophages were cultured in RPMI medium supplemented with 1% L-glutamine, 1% Penicillin/Streptomycin and 1% heat-inactivated chicken serum, at 5% CO2 and 37° C. […]
Beads phagocytosis was analyzed by flow cytometry (BD FACSCalibur) by quantification of the percentage of cells having ingested 2 or more beads.

[4] = test system: human iPS cell-derived sensory neurons co-cultured with human THP1-macrophages; test: Neural branches length in co-culture of iPS cell-derived sensory neurons and THP1 macrophages; assay type: cell-based; conditions: neurons plus THP1 macrophages, 100 μM 6′-sialyllactose, 48 hours; vs co-culture without 6′-sialyllactose
Method: The effect of 6′-sialyllactose on sensory neural branches was determined in a human co-culture system with induced pluripotent stem cell derived sensory neurons and human THP1-macrophages.
Human sensory neurons were obtained from human induced pluripotent stem (iPS) cells. At day 0, the iPS colonies were detached by collagenase IV, collected by sedimentation, and resuspended in DMEM/F12 medium supplemented by 20% KO serum, 1% nonessential amino acids, 10 μM SB (SB-431542, inhibitor of TGF-beta), 1 μM dorsomorphin, 3 μM CHIR, and 0.5 μM purmorphamine for 2 days. […] Afterwards, the neural stem cells (NSCs) were ready for differentiation. […]
The human THP1 mononuclear phagocyte cell line was maintained in RPMI medium supplemented with 1% L-glutamine, 1% Penicillin/Streptomycin, 1% sodium-pyruvate, 1% heat-inactivated chicken serum, and 1% N2 supplement at 5% CO2 and 37° C. […] For experiments, THP-1 macrophages were scraped, counted and added to the sensory iPS cell-derived neurons in co-culture medium 1:1 ratio (N2B27 medium plus BDNF, GDNF, dbcAMP) and treated with 100 μM 6′-sialyllactose (Carbosynth), that was re-purified by a HPLC-based anion exchange chromatography before use, or vehicle control for another 48 hours. […]

[5] = mice, 200 mg/kgbw neomycin alone s.c., vs PBS

Molecule | CD68+ cells per area in the spiral ganglion [1, 5] | NeuN-positive cells in the spiral ganglion [2, 5] | Myo7A-positive hair cells of the middle turn of the cochlear organ of Corti [3, 5] | CD68+ macrophages per area in the spiral ganglion (macrophage activation), normalized to PBS ([1]; one-week old C57BL/6 mice, 200 mg/kgbw neomycin plus 100 mg/kgbw 6′-sialyllactose s.c., sacrificed two weeks after last injection, vs neomycin alone) | NeuN-positive cells (neuronal density) in the spiral ganglion, normalized to PBS ([2]; one-week old C57BL/6 mice, 200 mg/kgbw neomycin plus 100 mg/kgbw 6′-sialyllactose s.c., vs neomycin alone) | relative beads phagocytosis rate (cells having ingested 2 or more beads) (human THP-1 macrophages) | Myo7A-positive hair cells of the middle turn of the cochlea per slice ([3]; one-week old BL6 mice, 200 mg/kgbw neomycin plus 100 mg/kgbw 6′-sialyllactose s.c., vs neomycin alone) | relative neural branches length [4]
NC[C@@H]1O[C@H](O[C@H]2[C@@H](O)[C@H](O[C@@H]3[C@@H](O)[C@H](N)C[C@H](N)[C@H]3O[C@H]3O[C@H](CN)[C@@H](O)[C@H](O)[C@H]3N)O[C@@H]2CO)[C@H](N)[C@@H](O)[C@@H]1O [neomycin, reference compound] | strongly increases the number of mononuclear phagocytes | reduction | strong reduction |  |  |  |  | 
Neu5Ac-α(2→6)-Gal-β(1→4)-Glc [6′-sialyllactose] |  |  |  | slight attenuation of macrophage activation; also recorded: might partially be prevented | less present; also recorded: might reduce the neomycin-induced loss of the sensory neurons | reduced the phagocytic uptake of microsphere beads; also recorded: reduced phagocytosis of beads | partially rescued; also recorded: reduced the neomycin-induced loss of the hair cells | could prevent the reduction in neural branches length
CC(=O)NC1C(O)CC(OC2C(O)C(CO)OC(OC3C(CO)OC(O)C(O)C3O)C2O)(C(=O)O)OC1[C@H](O)[C@H](O)CO (stereo partly drawn) [3′-sialyllactose, reference compound] |  |  |  |  |  | had no effect on the LPS-induced uptake of beads; also recorded: only showed a tendency without significance |  | 
